Experimental data published in patent EP3389640B1, “PHARMACEUTICAL COMPOSITION COMPRISING ANHYDROUS DASATINIB” (Synthon B.V., priority 2015, dated 2017).
≈ marks a conversion by molar mass, not a printed value. Where two headings read alike, the source gives them in different places.

Legend:
Assay type in all cases: physicochemical
[1] = solubility at different pH values
Text: Table 1 gives an overview of the solubility of anhydrous dasatinib ("N-6") and dasatinib monohydrate ("H1-7") at different pH values. Table 1: solubility of anhydrous dasatinib ("N-6") and dasatinib monohydrate ("H1-7")

[2] = form conversion during wet granulation in water; details: during the process of granulation in water
Method: The wet granulation process is performed with a granulation solvent selected from the group consisting of water, acetone, ethanol, isopropanol or a mixture thereof.

[3] = stability of tablets stored at 40°C/75% RH (assay and impurities); details: triacetin used as plasticizer in the coating formulation
Text: The intragranular components were blended with water in a high shear mixer. The resulting granulate was dried in a fluid bed dryer. The granulate was sieved through an appropriate mesh size sieve. Microcrystalline cellulose and croscarmellose sodium were sieved through a suitable mesh size sieve for deagglomeration. The excipients were mixed with the sieved granulate in a diffusion mixer. Magnesium stearate was sieved through an appropriate sieve to deagglomerate and mixed with the powder mix in a diffusion mixer. The homogeneous powder obtained, was compressed using a rotating tablet press using appropriate punches. Part of the tablets were coated with a water suspension of Opadry® II White 31K28459 coating until 3% weight gain (= […]). The tablets were packed in suitable packaging material and were stored at 40°C/75% RH.
Hydroxypropyl cellulose was dissolved in water and blended with the other intragranular components in a high shear mixer. The resulting granulate was dried in a fluid bed dryer. The granulate was sieved through an appropriate mesh size sieve. Microcrystalline cellulose and croscarmellose sodium were sieved through a suitable mesh size sieve for deagglomeration. The excipients were mixed with the sieved granulate in a tumbling mixer. […]

solubility ([1]; pH 1.2)	solubility ([1]; pH 1.2, listed as dasatinib monohydrate "H1-7")	solubility ([1]; pH 4.5)	solubility ([1]; pH 6.8)	solubility ([1]; pH 1.2, listed as anhydrous form "N-6")	solubility ([1]; pH 4.5, aqueous buffer, pH 4.5, read-out: solubility)	reaction with the organic ester triacetin [3]	Structure (SMILES)	conversion into dasatinib monohydrate [2]
2850 µg/mL	2850 µg/mL	134 µg/mL	0.6 µg/mL				Cc1nc(Nc2ncc(C(=O)Nc3c(C)cccc3Cl)s2)cc(N2CCN(CCO)CC2)n1 [Dasatinib monohydrate ("H1-7"), N-(2-chloro-6-methylphenyl)-2-[[6-[4-(2-hydroxyethyl)-1-piperazinyl]-2-methyl-4-pyrimidinyl]amino]-5-thiazolecarboxamide]	
34510 µg/mL (≈ 70700 µM)			1.8 µg/mL (≈ 3.69 µM)	34510 µg/mL (≈ 70700 µM)	179 µg/mL (≈ 367 µM)	does not react	Cc1nc(Nc2ncc(C(=O)Nc3c(C)cccc3Cl)s2)cc(N2CCN(CCO)CC2)n1 [Anhydrous dasatinib ("N-6"), N-(2-chloro-6-methylphenyl)-2-[[6-[4-(2-hydroxyethyl)-1-piperazinyl]-2-methyl-4-pyrimidinyl]amino]-5-thiazolecarboxamide]	does not convert into dasatinib monohydrate
